This passage reports activation (HDL uptake increase) and AC40 results from PubChem BioAssay AID602191 (Broad Institute, 2012).

The source made the active and inactive calls.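 How the source made its calls: active means fitted curve reaches 40% activation at a concentration no higher than the top valid tested dose; inconclusive means flat fit between 30% and 70% activation, or poor fit; inactive means uptake decrease, flat fit within 30% of zero, the rest.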 Starred links: 1 amine or outer side, 2 acyl side, 3 side chain; linkers in the order of their positions; H or OH if unused. Non-standard residues stand in square brackets, D forms with d. Residues, ends and D or L forms follow the SMILES beside them. ξ: configuration not given here. X1 = CCCCCCC[C@H](O)C[C@@H](N[*:1])[C@@H](O)C(=O)[*:2]; X3 = COc1ccc(CCCC(N[*:1])C(=O)[*:2])cc1; ξThr(3R) = C[C@@H](O)C(N)C(=O)O; NMeN = CN[C@@H](CC(N)=O)C(=O)O; X2 = C/C=C(/N[*:1])C(=O)[*:2]; Dhb = C/C=C(\N)C(=O)O; Sar = CNCC(=O)O

The test has as its target Scavenger receptor class B member 1 (Mus musculus) (UniProt Q61009). In words: activators of SR-BI-mediated HDL uptake, dose response, cell-based, ldlA[mSR-BI] CHO, DiI fluorescence, cherry-pick (AID 602191).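 On AC40: potency of activators raising HDL uptake.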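 On activation (HDL uptake increase): 0% = median of DMSO wells and 100% = twice the DMSO signal.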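 On all read-outs here: cell fluorescence from internalized DiI-labeled HDL after washing.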 The settings on record: ldlA[mSR-BI] CHO cells, 3 h; for activation (HDL uptake increase): at 35 µM (top of the series).

Scavenger receptor class B member 1 (Mus musculus), sequence (Q61009 whole entry, looked up): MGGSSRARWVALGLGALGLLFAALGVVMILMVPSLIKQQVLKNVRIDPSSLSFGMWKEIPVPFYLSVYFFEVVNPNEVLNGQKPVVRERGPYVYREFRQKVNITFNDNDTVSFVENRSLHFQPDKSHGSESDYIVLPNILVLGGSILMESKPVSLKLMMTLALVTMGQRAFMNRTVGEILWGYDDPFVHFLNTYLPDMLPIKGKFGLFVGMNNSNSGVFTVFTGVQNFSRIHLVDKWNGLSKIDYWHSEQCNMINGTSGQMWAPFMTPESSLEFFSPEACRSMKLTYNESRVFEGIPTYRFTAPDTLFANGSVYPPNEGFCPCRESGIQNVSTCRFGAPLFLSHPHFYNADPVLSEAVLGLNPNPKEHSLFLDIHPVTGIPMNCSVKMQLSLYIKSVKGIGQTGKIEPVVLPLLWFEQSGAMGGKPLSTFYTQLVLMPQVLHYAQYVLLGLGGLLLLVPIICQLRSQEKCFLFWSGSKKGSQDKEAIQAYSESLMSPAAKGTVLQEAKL

`CCOC(=O)N1CCN(C(=O)c2nn(C)c3c2CSc2ccccc2-3)CC1`: the activation (HDL uptake increase) was -12.2% (inactive).

As for `C/C=C1\NC(=O)[C@H](CC(N)=O)N(C)C(=O)C([C@@H](C)O)NC(=O)C(CCCc2ccc(OC)cc2)NC(=O)[C@H](C(C)C)NC(=O)/C(=C\C)NC(=O)[C@H](O)[C@@H](C[C@@H](O)CCCCCCC)NC(=O)[C@H](C)NC(=O)CN(C)C(=O)[C@H](CCC(N)=O)NC1=O` (stereo partly drawn) (cyclo(A[X1][X2]V[X3][ξThr(3R)][NMeN][Dhb]Q[Sar])), the AC40 was 28 µM.

In the case of `CC(=O)N1CCN(C(=O)c2ccc(-n3c(C)ccc3C)cc2)CC1`, the activation (HDL uptake increase) was -10.8% (inactive).

In the case of `C[C@@H]1CN([C@@H](C)CO)C(=O)Cc2cc(NC(=O)Nc3ccc(F)cc3)ccc2O[C@@H]1CN(C)Cc1ccc(Cl)c(Cl)c1`, the activation (HDL uptake increase) is 94.8% (inactive).

Regarding `O=C1CCCCN1CCC(=O)N1CCCC(Nc2ccccc2)C1` (configuration not stated), the activation (HDL uptake increase) is 4.76% (inactive).

As for `COc1ccc(C(=O)C2CCCN(C(=O)/C=C/c3ccccn3)C2)c(C)c1` (configuration not stated), the activation (HDL uptake increase) was -6.34% (inactive).

Turning to `COc1ccc(N2C(=O)C(CC(=O)Nc3ccc(F)cc3)N(CCc3cccs3)C2=O)cc1` (configuration not stated), the activation (HDL uptake increase) was -4.44% (inactive).

Regarding `COc1ccc(Cn2c(N)c(S(=O)(=O)c3cccs3)c3nc4ccccc4nc32)cc1`, the activation (HDL uptake increase) was -19.6% (inactive).

Consider `O=C1C2CCCN2C(=O)N1CCCCN1CCN(c2ccccc2)CC1` (configuration not stated), for which the activation (HDL uptake increase) is 10.3% (inactive).

`O=C(CC1C[C@H](C(=O)N2CCOCC2)[C@@]2(CCC3CCCC3)c3[nH]c4ccccc4c3CCN2C1=O)NCc1cccc(C(F)(F)F)c1` (some centres not stated): the activation (HDL uptake increase) was 25.1% (inactive).

On to `CC(C)(C)c1ccccc1NC(=O)CN1C(=O)NC2(CCCCCC2)C1=O`, for which the activation (HDL uptake increase) is -12.4% (inactive).

With `CCCCCC(=O)Nc1cc(S(=O)(=O)N2CCOCC2)ccc1N1CCCCC1`, the activation (HDL uptake increase) is -0.494% (inactive).

Consider `CCN1CCN(C(c2cccc(OC)c2)c2sc3nc(C)nn3c2O)CC1` (configuration not stated), for which the activation (HDL uptake increase) is -1.19% (inactive).

Turning to `CC1CCCC(NC(=O)CSc2nncs2)C1C` (configuration not stated), the activation (HDL uptake increase) is -4.42% (inactive).

With `CC1Cc2cc(/C(O)=C3/C(=O)C(=O)N(CCN4CCOCC4)C3c3ccc([N+](=O)[O-])cc3)ccc2O1` (configuration not stated), the activation (HDL uptake increase) is 13.1% (inactive).

For the compound `CCCCCC1CC(CC(=O)O)C(=O)O1` (configuration not stated), the activation (HDL uptake increase) is -5.76% (inactive).

As for `CC(C)NC(=O)C1(O)c2ccccc2NC(=O)N1c1ccc(Cl)c(Cl)c1` (configuration not stated), the AC40 is > 35 µM (inactive).

For `CCOc1cc(N2CCOCC2)c(OCC)cc1NC(=O)CSc1cccc[n+]1[O-]`, the activation (HDL uptake increase) is -6.79% (inactive).

As to `O=C(CCSc1nnc(-c2ccco2)o1)Nc1ccc(Cl)cc1`, the activation (HDL uptake increase) was -2.84% (inactive).

In the case of `CC(C)C[C@H](NC(=O)c1nc[nH]c1C(=O)NC1CCN(C(=O)OC(C)(C)C)CC1)C(=O)OC(C)(C)C`, the activation (HDL uptake increase) is -3.21% (inactive).

In the case of `NCCc1nnc(SCc2ccccc2)o1`, the activation (HDL uptake increase) is 5.16% (inactive).

In the case of `O=C1[C@H]2[C@@H](c3ccc(F)cc3)N3C(=O)N(c4ccc(Br)cc4)C(=O)[C@@]3(Cc3ccccc3)[C@H]2C(=O)N1C1CCCCC1`, the activation (HDL uptake increase) was 6.23% (inactive).

Consider `O=C(CCC(=O)OCC(=O)c1ccc([N+](=O)[O-])cc1)Nc1ccccc1Cl`, for which the activation (HDL uptake increase) was -5.05% (inactive).

As for `COc1ccc(OC)c(S(=O)(=O)N2CCN(C(=O)CCc3ccccc3)CC2)c1`, the activation (HDL uptake increase) is -1.31% (inactive).

Take `COCCNC(=O)c1onc(CSc2ccc(F)c(F)c2)c1C(=O)O`: the activation (HDL uptake increase) is -4.96% (inactive).

For `Cc1ccc(OCC(=O)N(C)CC(=O)NCc2ccco2)c(Br)c1`, the activation (HDL uptake increase) was -24.2% (inactive).

Consider `CC1CC(C)CN(C(=O)CN2CCN(Cc3ccc(Cl)cc3)C2=O)C1` (configuration not stated), for which the activation (HDL uptake increase) was -4.58% (inactive).

In the case of `O=C1CCC(=O)N1c1ccc(S(=O)(=O)Nc2cccc(Br)c2)cc1`, the activation (HDL uptake increase) was -7.52% (inactive).

For `Nc1nonc1-n1nnc(C(=O)N/N=C/c2cccs2)c1CSc1ccccc1`, the activation (HDL uptake increase) was -1.92% (inactive).

As to `Cc1cccc(N2CCN(C(=S)c3ccc(-c4ccccc4[N+](=O)[O-])o3)CC2)c1`, the activation (HDL uptake increase) was -6.03% (inactive).

Turning to `CC(C)(C)n1nc2c(c1NC(=O)Cc1ccc(F)cc1)CS(=O)(=O)C2`, the activation (HDL uptake increase) was 9.82% (inactive).

Turning to `CCO[C@H]1OC(C(=O)N2CCOCC2)=C[C@@H](c2ccccc2)[C@@H]1CCCO`, the activation (HDL uptake increase) is -6.57% (inactive).

In the case of `CCCCNC(=O)CCCCC(=O)N/N=C/c1cccc(Cl)c1`, the activation (HDL uptake increase) is -17.4% (inactive).

For the compound `CCn1nnnc1-c1ccc(OC)c(S(=O)(=O)Nc2ccc(C)c(C)c2)c1`, the activation (HDL uptake increase) was -11.8% (inactive).

With `CCN1CCN(C(=O)/C(=C/c2ccco2)NC(=O)c2ccccc2)CC1`, the activation (HDL uptake increase) was -3.29% (inactive).

Take `CN1OC[C@@H]2CN[C@H](c3cccc(-c4cc(Cl)cc(Cl)c4)c3)C[C@@H]21`: the activation (HDL uptake increase) was 5.62% (inactive).

Turning to `O=C(NCc1cccc(Cl)c1)c1ccc(CS(=O)Cc2ccccc2Cl)o1` (configuration not stated), the activation (HDL uptake increase) was 0.636% (inactive).

Consider `O=C1CN(C(=O)COC(=O)C2=COCCO2)c2ccccc2N1`, for which the activation (HDL uptake increase) was 7.62% (inactive).

On to `O=C(CSc1nnnn1-c1ccccc1)N1CCNC1=O`, for which the activation (HDL uptake increase) is -10.4% (inactive).

Take `Cn1c(=O)oc2cc(S(=O)(=O)NCCN3CCN(c4ccccc4)CC3)ccc21`: the activation (HDL uptake increase) was -5.09% (inactive).

In the case of `Cc1ccc(OCC(=O)OC(C)C(=O)NC2CCCCC2C)cc1C` (configuration not stated), the AC40 was > 35 µM (inactive).

For `CCN1C(=O)C(CC(=O)NC2CCCCC2)N(CC)C1=O` (configuration not stated), the activation (HDL uptake increase) was 7.58% (inactive).

For `C[C@]12C[C@H](O)[C@H]3[C@@H](CCC4=CC(=O)CC[C@@]43C)[C@@H]1CC[C@@H]2C(=O)CO`, the activation (HDL uptake increase) was 6.28% (inactive).

As for `O=C(COC(=O)/C=C/c1cccc(Cl)c1)NCCc1ccc(Cl)cc1Cl`, the activation (HDL uptake increase) was -1.95% (inactive).

In the case of `CC(=O)NC(Cc1ccccc1)C(=O)OCC(=O)c1ccccc1` (configuration not stated), the activation (HDL uptake increase) is -12% (inactive).

With `CC(C)CN(C(=O)CN1C(=O)C2CCCCC2C1=O)c1c(N)n(Cc2ccccc2)c(=O)[nH]c1=O` (configuration not stated), the activation (HDL uptake increase) was -7.25% (inactive).

Consider `CN(C(=O)COC(=O)c1cccc(S(=O)(=O)N2CCOCC2)c1)C1CCS(=O)(=O)C1` (configuration not stated), for which the activation (HDL uptake increase) is 5.01% (inactive).

On to `NC(=O)C1CCN(C(=O)C2CC(=O)N(Cc3ccccc3)C2)CC1` (configuration not stated), for which the activation (HDL uptake increase) is -2.16% (inactive).

`COc1cccc(OC)c1C(=O)N1CCN(Cc2ccccc2C)CC1`: the activation (HDL uptake increase) was -7.18% (inactive).

In the case of `COc1ccccc1OCC(=O)OCc1cc(-c2ccco2)on1`, the activation (HDL uptake increase) was -5.82% (inactive).

Regarding `Cc1ccc(S(=O)(=O)N2CCOCC2)cc1C(=O)NCc1ccccc1CN1CCCC1`, the activation (HDL uptake increase) is -7.63% (inactive).

Turning to `CCOC(=O)c1ccc(NC(=O)c2nc[nH]c2C(=O)NCCCCNC(=O)c2[nH]cnc2C(=O)Nc2ccc(C(=O)OCC)cc2)cc1`, the AC40 was 29.8 µM.
